Assay results as given in patent publication US6855549B1, “Methods and compositions for increasing the infectivity of gene transfer vectors” (The University of Iowa Research Foundation, priority 1998, dated 2005).
“Also recorded” adds a separate entry of the source.

What was measured:
[1] = test system: human bronchial epithelial cells; type: cell-based
Method: Primary human airway epithelial cells were collected by enzymatic digestion of bronchial samples from lung transplants as previously described (Kondo et al., 1991; Zabner et al., 1996). Isolated airway primary cells were seeded at a density of 5×10^5 cells/cm^2 onto collagen-coated Millicell-HA culture inserts (Millipore, Bedford, Mass.). Primary cultures were grown at the air-liquid interface for more than 2 wk, at which time differentiation into a mucociliary epithelium occurs. The culture medium, used to feed only the basolateral side of the cells, contained 49% Dulbecco's modified Eagle's medium (DMEM), 49% Ham's F12, and 2% Ultraser G (BioSepra, Cedex, France).
Recombinant AAV virus was produced by a CaPO4 co-transfection protocol and was purified through three rounds of isopycnic cesium chloride ultracentrifuigation, as previously described (Duan et al., 1997). The proviral plasmid, pCisAV.GFP3ori, was used to generate rAAV (AV.GFP3ori), which encoded the enhanced green fluorescent protein (EGFP) reporter gene under the transcriptional control of the cytomegalovirus (CVM) enhancer/promoter and simian virus 40 (SV40) polyadenylation signal (Duan et al., 1998). Recombinant viral stocks were heated at 58° C. for 60 min to inactivate contaminating helper adenovirus. Typical yields were 1×10^9 particles/μl, determined on the basis of DNA slot-blot hybridization assays against plasmid standards. The level of adenoviral contamination, as based on a second reporter assay for the recombinant adenovirus used for propagation (Ad.CMVAlkphos) (Duane et al., 1997), was less than 1 functional particle per 1×10^10 DNA particles of rAAV. Viral preparations were evaluated for the contamination of wild type AAV (wtAAV) by immunocytochemical staining of AV.GFP3ori/Ad.CMVLacZ (Duan et al., 1998)-coinfected 293 cells with anti-Rep antibodies (American Research Products, Belmont, Mass.). […] Transfection with Rep/Cap-encoding plasmids served as controls for antibody staining of Rep protein. Virus was dialyzed in phosphate-buffered saline (PBS) prior to application on primary airway cultures. […]

[2] = test system: rabbit tracheal epithelium; experiment: Tracheal transepithelial voltage (Vt) in anesthetized rabbits; type: in vivo
Method: Rabbit studies. The transepithelial electrical potential difference across the rabbit tracheal epithelium (Vt) was measured using a modification of previously described methods (Zabner et al., 1996). The reference electrode was a subcutaneous needle connected with sterile normal saline solution to a silver/silver chloride pellet. Adult New Zealand white rabbits (n=4/group) were anesthetized with 32 mg/kg ketamine, 5.1 mg/kg xylazine and 0.8 mg/kg acepromazine intramuscularly and placed with the head in the dependent position. An exploring electrode (pediatric size 8 Teflon-coated latex double lumen Foley catheter, modified Ruseh, Inc., Duluth, Ga.) was inserted into the tracheal lumen via a tracheotomy incision. One lumen of the catheter was filled with sterile normal saline solution and was connected to a silver/silver chloride pellet. Voltage was measured with a voltmeter connected to a strip chart recorder. The catheter was then left in that position for the entire recording period. The solutions were administered through the second lumen in the following order: 1) Normal saline for 5 min; 2) Sterile water with 10 mM EGTA for 10 min; 3) Normal saline with 10 mM EGTA for 5 min; and 4) Normal saline with 10 mM EGTA plus 100 μM amiloride for 5 min. Measurements of Vt were read by two investigators who were blinded to the treatment received. There wre no discrepancies in readings of greater than 2 mV between the investigators. Disruption of epithelial junctions was assessed by detecting a fall in […] Vt after perfusion with the chelator, and by the loss of amiloride-sensitive Vt after perfusion with the chelator solution.

[3] = test system: differentiated human airway epithelia; type: cell-based; conditions: VSV-G pseudotyped HIV-based lentivirus
[4] = test system: polarized human bronchial epithelial cells; experiment: Transepithelial resistance of polarized bronchial cultures after hypotonic EGTA; type: cell-based; conditions: 3 mM EGTA-H2O, 10 min, 37° C., immediate
Method: For the UV irradiation studies, Millicell inserts were put transiently into empty 100-mm tissue culture plates (apical side up) and exposed to 25 J/m^2 of UV light (254 nm). After irradiation, the Millicell inserts were quickly returned to plates containing Ultraser G culture medium on the basolateral side. Infections with rAAV were performed immediately following UV irradiation by application of 5×10^9 rAAV particles in 100 μl to either the apical or basolateral side of the support membrane as described above. Keratinocyte growth factor (KGF) treatment was performed at a final concentration of 100 ng/ml by addition to the basolateral culture medium for two sequential 24-hr incubations prior to AAV infection. Transient disruption of tight junctions was achieved by treating polarized cells with 3 mM EGTA in water for 10 min. After hypotonic EGTA treatment, cultures were washed twice with culture medium and infected with 5×10^9 rAAV particles in […] on either the apical or basolateral side of support membranes.
The transepithelial resistance of primary airway cultures was monitored with an ohm meter (EVOM; World Precision Instruments, Sarasota Fla.), as previously described (Wang et al., 1998). […] Electrodes were placed in both the mucosal and serosal compartments of the Millicell inserts and the resistance across the epithelia was recorded.

[5] = test system: differentiated human airway epithelial cells; type: cell-based
[6] = test system: primary cultures of human airway epithelia; experiment: EGTA dose range for gene transfer on primary cultures of human airway epithelia; type: cell-based; conditions: MuLV or FIV based retroviruses, MOI 10, range tested 0-96 mM, 4 hrs apical
Method: The optimal dose range for EGTA was determined on primary cultures of human airway epithelia Gene transfer efficiency with apical application of MuLV or FIV based retrovirus (MOI 10) or adenovirus (MOI 50) was determined over a range of EGTA concentrations from 0-96 mM. The vectors were diluted 1:1 (vol/vol) with a buffer consisting of water, 10 mM HEPES and the appropriate amount of EGTA. The vector formulation was left on the apical surface of the cells for 4 hrs, then removed. Gene transfer efficiency was evaluated 3 days later by X-gal staining for beta galactosidase expression.

With `O=C(O)CN(CCOCCOCCN(CC(=O)O)CC(=O)O)CC(=O)O` [EGTA] the “apical transduction after EGTA, lower than maximal basolateral level” value [1] was 20 fold, the “rAAV transduction, EGTA and virus on basolateral side” value [1] was “no significant differences were seen in the extent of rAAV” and the “integrity of the monolayers by light microscopy” value ([1]; 40 days after hypotonic/EGTA treatment) was “No significant differences were detected in the integrity of the monolayers”. For the same compound, the “amiloride-sensitive Vt after hypotonic/EGTA treatment” value ([2]; 100 μM amiloride) was “there was no residual amiloride-sensitive Vt; also recorded: amiloride had no effect on Vt”, the “tracheal Vt” value ([2]; hypotonic solution with 10 mM EGTA then saline with 10 mM EGTA) was “caused a significant fall in Vt” and the “gene transfer, apical surface of quiescent cells with EGTA/hypotonic buffer” value [3] was “gene transfer was enhanced”. The “decrease in transepithelial resistance” value [4] was “greater than 10 fold”, the “effect of EGTA solution alone on cell proliferation (BrdU histochemistry)” value [5] was “had no effect on cell proliferation” and the “EGTA concentration giving greatest gene transfer (percentage of blue cells)” value [6] was 6 to 12 mM.
